The values below come from patent publication US20150241410A1, “INHIBITORS OF CENTRAL NERVOUS SYSTEM VASOACTIVE INHIBITORY PEPTIDE RECEPTOR 2” (The Trustees Of Columbia University In The City Of New York, priority 2012, published 2015).

Each structure is given as a SMILES string.

One assay has as its target T1, hVIPR1 (Homo sapiens, UniProt P32241).
T1 construct: expressed in transfected cells; host or cells: transient transfection with CAMYEL
T1 sequence (P32241 31-457): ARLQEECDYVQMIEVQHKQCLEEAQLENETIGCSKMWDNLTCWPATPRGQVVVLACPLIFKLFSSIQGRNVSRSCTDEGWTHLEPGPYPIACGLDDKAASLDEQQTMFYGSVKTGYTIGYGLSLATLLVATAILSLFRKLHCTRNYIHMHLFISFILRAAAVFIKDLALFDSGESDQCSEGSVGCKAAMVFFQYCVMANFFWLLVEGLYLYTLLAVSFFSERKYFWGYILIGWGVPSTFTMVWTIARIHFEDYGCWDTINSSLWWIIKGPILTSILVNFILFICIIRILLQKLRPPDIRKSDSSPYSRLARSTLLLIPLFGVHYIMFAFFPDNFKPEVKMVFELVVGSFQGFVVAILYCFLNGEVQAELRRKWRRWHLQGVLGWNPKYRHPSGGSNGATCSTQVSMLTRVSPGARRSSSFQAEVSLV
Nature of the assay: CAMYEL BRET cAMP assay in transient cell lines expressing hVIPR1. The assay is classed as cell-based. Conditions: transient cell lines expressing hVIPR1 and CAMYEL (FIG. 7). From the text: These assays are now being used for reliable and rapid quantification of VIPR2 responses to various antagonists under development for this receptor. This assay can also be used to evaluate agonists to VIPR2 and allosteric compounds, in addition to addresing the functional selectivity of different compounds, as it is possible to address multiple pathways effected by modulation of VIPR2 using this second messenger detection systems (cAMP and β-arrestin). This cellular assay for the detection of […] is applicable to multiple members of the […]. To this end lines were also developed expressing CAMYEL together with VIPR1 and PACAP1R (both the human and mouse forms) using transient transfection. This allows for the confirmation of specificity of novel antagonists to the VIPR2 receptor in addition to providing the ability to assay VIPR1 and PACAPR1 antagonists, agonists and allosteric modulators. […] These assays allow assays of VIPR2 antagonist, agonists and other compounds acting at […] in a specific, selective, rapid and medium to high throughput manner.

In the next assay the target is T2, VIPR2 (Homo sapiens, UniProt P41587).
T2 construct: expressed in transfected cells
T2 sequence (P41587 24-438): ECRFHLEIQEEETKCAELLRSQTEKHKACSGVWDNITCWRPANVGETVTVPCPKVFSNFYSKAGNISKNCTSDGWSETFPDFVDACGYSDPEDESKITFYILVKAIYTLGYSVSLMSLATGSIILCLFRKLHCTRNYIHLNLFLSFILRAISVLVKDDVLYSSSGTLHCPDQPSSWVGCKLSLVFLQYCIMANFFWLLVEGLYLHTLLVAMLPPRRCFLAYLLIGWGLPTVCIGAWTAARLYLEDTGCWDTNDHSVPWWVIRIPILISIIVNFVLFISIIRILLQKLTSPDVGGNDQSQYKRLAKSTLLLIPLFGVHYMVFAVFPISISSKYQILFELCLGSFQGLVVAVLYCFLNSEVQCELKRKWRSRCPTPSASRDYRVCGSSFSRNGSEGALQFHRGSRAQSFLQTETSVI
Nature of the assay: BRET-based VIPR2 activation assay (CAMYEL cAMP sensor, CHO cells, VIP background). The assay is classed as cell-based. Conditions: compared with Compound 1 or other compounds (FIG. 1C, FIG. 5B). Here is the method:
FIG. 5A-B. Results of BRET-based VIPR2 activation assays in cells expressing both the VIPR2 receptor and CAMYEL (see FIG. 1A for schematic). a) Inhibitory dose-response curves on treatment of CHO cells with increasing concentrations of a batch of antagonists against a background of VIP activation (VIP=5 nM).
In such a system, a detector cell is used which expresses both the VIPR2 receptor and “CAMYEL,” a YFP-Epac-RLuc8 BRET sensor construct. This construct includes Epac1, a guanine nucleotide exchange factor activated by direct binding of cAMP, fused with an enhanced YFP and Renilla luciferase 8 (Rluc8) allowing BRET upon cAMP-induced conformational changes (Jiang et al., 2007, J Biol Chem. 282:10576-10584). In response to elevated cAMP levels, there is a conformational change in Epac and therefore a change in the proximity of the fused chromophores, Rluc8 and YFP, resulting in measurable energy transfer. Coexpression of this BRET construct with VIPR2. optionally tagged at the N-terminus with a signal peptide and FLAG epitope (SF-VIPR2), for example in HEK293 cells, allows for detection of a VIPR2-specific response to cAMP. BRET readout may be calculated by quantifying the ratio of the light emitted by the acceptor, YFP (λ=525 nm), over the emission from the donor, RLuc8 (λ=485 nm). The proximity of the donor and acceptor, and therefore the BRET ratio, decreases in the presence of cAMP. In non-limiting specific embodiments, a stable cell line may be generated for this assay using the Flp-In T-Rex system in HEK293 cells. This system allows site-specific single copy integration of the gene of interest and control of expression levels using the Tet-repressor site making receptor expression tetracycline-inducible. For example, a CAMYEL and VIPR2 expressing line may be induced with 0.01 μg/ml tetracycline, then, 24 hours later cells may be collected and distributed into 96-well plates. After treatment with candidate inhibitor compound, for example at 5, 1 and 0.5 μM concentrations, cells may be incubated with the light emitting luciferin, coelenterazine H, for 5 min and incubated for 5 min with VIP at increasing concentrations, for example ranging from 100 pM to 10 μM. The fluorescence and luminescence may then be quantified, for example using a PHERAstar (BMG) plate reader. […] Alternatively, analogous experiments may be performed using human cells harvested from a patient having a VIPR2 copy number variation, for example (but not by way of limitation) pluripotent stem cells prepared from such a patient and then transfected with a CAMYEL construct.
A series of compounds were prepared using a synthetic method analogous to that set forth in Scheme 1, above, and then tested for their ability to inhibit VIP-induced cAMP elevation and β-arrestin recruitment, as described herein (Discoverx Corporation, Fremont, Calif., US). Compound activities were also tested in a BRET-based assay, as described herein. The results are shown below in Tables 1-4, above.
Numerous cellular assays were developed that were able to detect VIP responses absent of interference from non-specific vasopressin receptors using this CHO based system. VIPR2 is a Gs coupled receptor. Activation of VIPR2 by VIP leads to both an elevation in cAMP signaling and the recruitment of β-arrestin. A variety of combinations can be transiently transfect into these CHO cells for the assessment of cellular responses to VIP. For the BRET readout CHO cell lines expressing an YFP-Epac-RLuc8 (CAMYEL) BRET sensor were used to detect changes in cAMP. This construct includes Epac1, a guanine nucleotide exchange factor activated by direct binding of cAMP, fused to an enhanced YFP and RLuc8 allowing a change in BRET upon cAMP-induced conformational changes. The key for medium to high throughput screening assays is the use of stable cell lines allowing the continuous assaying of multiple compounds with the ability to generate large numbers of cells for rapid use. […]
A general note: BRET reads energy transfer from a luciferase to a nearby fluorophore.

Turning to `CC(=O)c1ccc(S(=O)(=O)NC[C@@H](O)C[C@@H](Cc2ccccc2)C(=O)N[C@H]2c3ccccc3C[C@H]2O)cc1` [K], the “specificity for VIPR2 over hVIPR1” value on hVIPR1 is listed as “VIPR2 specificity”. The “VIPR2 inhibition in BRET-based assay, in words” value on VIPR2 is “significantly improved activity as an antagonist at VIPR2”.
